Test system: calf thymus (CT) DNA
Type: binding
Conditions: for ΔTm (° C.) after incubation at 37° C. for 0 h / ΔTm (° C.) after incubation at 37° C. for 18 h / ΔTm (° C.) after incubation at 37° C. for 36 h: [PBD]:[DNA] molar ratio 1:5, CT-DNA 100 μM, ligand 20 μM, 10 mM sodium phosphate + 1 mM EDTA, pH 7.00; for ΔTm (° C.) after incubation at 37° C. for 0 h: 0 h incubation at 37° C.; for ΔTm (° C.) after incubation at 37° C. for 18 h: 18 h incubation at 37° C.; for ΔTm (° C.) after incubation at 37° C. for 36 h: 36 h incubation at 37° C.
Procedure: The DNA binding affinity of the novel C2 di-fluoro PBD dimers (VIIa-c) was investigated by thermal denaturation studies using calf thymus (CT) DNA (Jones, G. B.; Davey, C. L.; Jenkins, T. C.; Kamal, A.; Kneale, G. G.; Neidle, S.; Webster, G. D.; Thurston, D. E. Anti-Cancer Drug Des. 1990, 5, 249. McConnaughie, A. W.; Jenkins, T. C. J. Med. Chem. 1995, 38, 3488). The studies for these compounds (VIIa-c) were carried out by DNA/ligand molar ratios of 5:1. The increase in the helix melting temperature. (ΔTm) for each compound was examined after 0, 18 and 36 h incubation at 37° C.

With “1,1′-{[(pentane-1,5-diyl)]dioxy}bis[(11aS)-2,2-difluoro-7-methoxy-1,2,3,11a-tetrahydro-5H-pyrrolo[2,1-c][1,4]benzodiazepin-5-one [VIIc]” the “ΔTm (° C.) after incubation at 37° C. for 0 h” value (“ΔTm … for 0 h” below) was 18.9 °C, the “ΔTm (° C.) after incubation at 37° C. for 18 h” value (“ΔTm … for 18 h” below) was 24.5 °C and the “ΔTm (° C.) after incubation at 37° C. for 36 h” value (“ΔTm … for 36 h” for short) was 28.4 °C.

With `COc1ccc2c(c1)C(=O)N1CC(F)(F)C(OCCCOC3[C@@H]4C=Nc5ccc(OC)cc5C(=O)N4CC3(F)F)[C@@H]1C=N2` (stereo partly drawn) [VIIa, 1,1′-{[(propane-1,3-diyl)]dioxy}bis[(11aS)-2,2-difluoro-7-methoxy-1,2,3,11a-tetrahydro-5H-pyrrolo[2,1-c][1,4]benzodiazepin-5-one]] the “ΔTm … for 0 h” value was 13.1 °C, the “ΔTm … for 18 h” value was 23.4 °C and the “ΔTm … for 36 h” value was 27.5 °C.

`COc1cc2c(cc1O)N=CC1CCCN1C2=O` (stereo not shown) [DC-81, reference compound] was tested, and the “ΔTm … for 0 h” value was 0.3 °C, the “ΔTm … for 18 h” value was 0.7 °C and the “ΔTm … for 36 h” value was 0.7 °C. For the same molecule, the “ΔTm (increase in the helix melting temperature)” value (under identical experimental conditions, DNA/ligand molar ratio 5:1, incubation time not stated) was 0.7 °C.

In the case of “1,1′-{[(butane-1,4-diyl)]dioxy}bis[(11aS)-2,2-difluoro-7-methoxy-1,2,3,11a-tetrahydro-5H-pyrrolo[2,1-c][1,4]benzodiazepin-5-one [VIIb]”, the “ΔTm … for 0 h” value is reported as 4.2 °C, the “ΔTm … for 18 h” value is reported as 23.4 °C and the “ΔTm … for 36 h” value is reported as 24.7 °C.

— US7476664B2, “Bis-2-difluoro-pyrrolo[2,1-C][1,4]benzodiazepine dimers” (priority 2007, dated 2009)
